From patent US9943554B2, “Compositions and methods relating to solenopsins and their uses in treating neurological disorders and enhancing physical performance” (priority 2006, dated 2018)

How the values were obtained:
[1] = target: T1, muscarinic receptors (M1) (Homo sapiens, UniProt P11229); assay: CEREP screen: muscarinic receptor M1; assay type: binding; design: dose or concentration left out as unconfirmed
T1 construct: CEREP
T1 sequence (P11229 1-460): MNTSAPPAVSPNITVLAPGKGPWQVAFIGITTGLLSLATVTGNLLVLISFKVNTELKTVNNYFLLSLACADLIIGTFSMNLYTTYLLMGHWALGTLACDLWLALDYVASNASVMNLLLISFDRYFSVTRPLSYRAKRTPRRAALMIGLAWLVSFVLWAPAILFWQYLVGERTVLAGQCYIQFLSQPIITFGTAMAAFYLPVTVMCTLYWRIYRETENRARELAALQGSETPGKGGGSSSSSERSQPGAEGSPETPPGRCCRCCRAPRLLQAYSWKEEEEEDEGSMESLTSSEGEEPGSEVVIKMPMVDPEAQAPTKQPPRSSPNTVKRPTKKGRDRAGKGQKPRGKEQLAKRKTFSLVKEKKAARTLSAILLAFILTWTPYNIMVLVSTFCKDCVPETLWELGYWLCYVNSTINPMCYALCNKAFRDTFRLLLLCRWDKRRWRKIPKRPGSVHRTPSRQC
Experimental: (§1) Recent CEREP screen indicated for SPI-001 ([…]) that it inhibited muscarinic receptors (M1, M2 and M3), Na+ channels and monoamine (NE, DA, and 5-HT) transporters with high affinity (˜90%).

[2] = target: T2, monoamine (5-HT) transporters (Homo sapiens, UniProt P31645); assay: CEREP screen: 5-HT transporter; assay type: binding; design: dose or concentration left out as unconfirmed
T2 construct: CEREP
Experimental: as §1

[3] = system: Pl3 kinase; assay: Initial studies: Pl3 kinase; assay type: biochemical
[4] = system: Aβ1-42 peptide; assay: Brain and plasma Aβ1-42 peptide levels in guinea pigs after single oral administration; assay type: in vivo; conditions: Guinea Pig, single 10 mg/kg oral
Experimental: (§2) Animals were dosed once with SPI-001 and then examined at 0, 4, 24, 48 hours and 7 days for AP peptide levels.

[5] = system: APP transgenic mice; assay: Examination for abnormal pathology after repetitive administration for 3 months; assay type: in vivo; conditions: 10 mg/kg orally daily for 3 months
Experimental: (§3) SPI-001 was administered to APP transgenic mice at 10 mg/kg for 3 months to determine the effect upon Aβ peptide and amyloid load. Animals were administered SPI-001 orally in 25% PEG daily and examined for abnormal pathology. […] Animals were analyzed for behavioral changes associated with drug treatment (FIG. 7). […] FIG. 8 illustrates the plaque load in the brains of control and SPI-001 treated animals.

[6] = system: Aβ1-40 peptide; assay: Brain and plasma Aβ1-40 peptide levels in guinea pigs after single oral administration; assay type: in vivo; conditions: Guinea Pig; single 10 mg/kg oral; compared with Aβ1-42
Experimental: as §2

[7] = system: amyloid load; assay: Amyloid (plaque) load in the brain after repetitive administration for 3 months; assay type: in vivo; conditions: APP transgenic mice; 10 mg/kg orally daily for 3 months; compared to control animals
Excerpt: The APP mice (male) used in these experiments were designed by microinjection of the human APP gene (with the Swedish and London mutations) into mouse eggs under the control of the platelet-derived growth factor B (PDGF-B) chain gene promoter. The mice were generated on a C57BL/6 background. Animals were housed in the Medical University of South Carolina Animal Facility under a 12:12 light:dark cycle. Animals were housed in standard non-sterile rodent microisolator cages, with filtered cage tops and housed 4 to a cage. Animals were fed ad libitum and maintained by brother sister mating. Transgenic animals were identified by PCR analysis. The mice generated from this construct develop amyloid deposits starting at 3 months of age. Animals were aged for 3 months and then maintained for 90 days and sacrificed for amyloid quantification.
as §3

[8] = system: C57BL/6 mice; assay: Selectivity and safety profile in C57BL/6 mice; assay type: in vivo
Experimental: Animals (C57BL/6 mice, 5 mice per group) were treated with SPI-001 at 0, 4, 40, and 400 mg/kg in 25% PEG 400 with a single dose and examined 14 days later.

[9] = target: T3, monoamine (DA) transporters (Homo sapiens, UniProt Q01959); assay: CEREP screen: DA transporter; assay type: binding; design: dose or concentration left out as unconfirmed
T3 construct: CEREP
Experimental: as §1

[10] = system: Aβ1-42 peptide; assay: Acute administration for 7 days: brain and plasma Aβ1-42 peptide levels; assay type: in vivo, APP transgenic mice; conditions: 10 mg/kg for 7 days in 25% PEG 400, at 7 days
Experimental: Animals were dosed once with SPI-001 and then examined at 7 days for AP peptide levels.

[11] = PK profile in plasma and brain of APP transgenic animals; assay type: in vivo, APP transgenic mice; conditions: orally 10 mg/kg
Experimental: For PK profile, the APP transgenic animals were administered SPI-001, and blood samples and brain tissue were collected and subjected to drug analysis.

[12] = system: MAPKAPK2 pathways; assay: Initial studies: MAPKAPK2 pathways; assay type: biochemical
[13] = system: Na+ channels; assay: CEREP screen: Na+ channels; assay type: binding; conditions: SPI-001 10 mM
Experimental: as §1

[14] = 400 mg/kg in 25% PEG 400 for 14 days
[15] = C57BL/6 mice, single dose 4, 40 and 400 mg/kg in 25% PEG 400, examined 14 days later

T2 sequence (P31645 whole entry): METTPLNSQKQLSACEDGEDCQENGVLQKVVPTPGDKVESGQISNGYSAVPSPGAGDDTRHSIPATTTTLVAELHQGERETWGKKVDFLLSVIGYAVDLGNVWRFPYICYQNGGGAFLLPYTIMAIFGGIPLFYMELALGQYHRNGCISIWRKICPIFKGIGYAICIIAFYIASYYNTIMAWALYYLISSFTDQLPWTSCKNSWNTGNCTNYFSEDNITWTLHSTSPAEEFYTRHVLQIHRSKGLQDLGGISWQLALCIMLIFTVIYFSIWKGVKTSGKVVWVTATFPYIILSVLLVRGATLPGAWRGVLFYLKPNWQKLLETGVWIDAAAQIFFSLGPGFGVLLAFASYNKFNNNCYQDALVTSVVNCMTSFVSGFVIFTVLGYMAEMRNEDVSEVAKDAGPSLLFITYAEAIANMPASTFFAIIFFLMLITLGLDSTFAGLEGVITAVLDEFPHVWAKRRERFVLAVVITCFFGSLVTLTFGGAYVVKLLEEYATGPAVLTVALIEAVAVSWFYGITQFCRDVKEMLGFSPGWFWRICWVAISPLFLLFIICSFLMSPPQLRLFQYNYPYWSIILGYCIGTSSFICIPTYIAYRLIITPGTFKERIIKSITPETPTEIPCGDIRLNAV
T3 sequence (Q01959 whole entry): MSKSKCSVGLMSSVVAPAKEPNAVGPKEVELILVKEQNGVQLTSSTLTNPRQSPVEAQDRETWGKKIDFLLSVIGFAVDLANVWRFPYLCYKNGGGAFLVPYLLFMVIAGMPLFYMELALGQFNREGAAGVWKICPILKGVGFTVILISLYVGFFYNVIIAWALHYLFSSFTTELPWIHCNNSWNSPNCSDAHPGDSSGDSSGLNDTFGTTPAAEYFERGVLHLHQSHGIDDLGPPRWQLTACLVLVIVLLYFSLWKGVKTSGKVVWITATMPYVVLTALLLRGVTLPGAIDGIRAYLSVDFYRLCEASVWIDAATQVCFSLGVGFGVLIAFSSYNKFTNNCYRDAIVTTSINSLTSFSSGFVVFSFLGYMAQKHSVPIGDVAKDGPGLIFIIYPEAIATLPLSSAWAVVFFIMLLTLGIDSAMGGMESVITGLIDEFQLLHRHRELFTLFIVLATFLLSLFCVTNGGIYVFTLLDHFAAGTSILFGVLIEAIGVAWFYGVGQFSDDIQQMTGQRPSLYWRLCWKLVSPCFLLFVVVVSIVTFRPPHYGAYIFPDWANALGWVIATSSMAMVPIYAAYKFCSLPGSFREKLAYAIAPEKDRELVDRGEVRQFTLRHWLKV

Structure (SMILES): CCCCCCCCCCC[C@H]1CCC[C@H](C)N1 (relative stereo) [SPI-001, trans-2-methyl 6-n-undecylpiperidine]
- inhibition [1]: ~90%
- inhibition [2]: ~90%
- effect on Pl3 kinase [3]: inhibiting
- brain Aβ1-42 peptide levels ([4]; 4 hr): decreased
- plasma Aβ1-42 peptide levels ([4]; 4 hr): increased
- brain Aβ1-42 peptide levels ([4]; 24 hours): continued to decrease
- plasma Aβ1-42 peptide levels ([4]; 24 hours): continued to increase
- brain Aβ1-42 peptide levels ([4]; 48 hours): returned to control levels
- plasma Aβ1-42 peptide levels ([4]; 48 hours): returned to control levels
- brain Aβ1-42 peptide levels ([4]; 7 days): returned to control levels
- plasma Aβ1-42 peptide levels ([4]; 7 days): returned to control levels
- systemic pathological features (liver, kidney, heart, lungs, intestine) [5]: did not show any signs of systemic pathological features
- brain Aβ1-40 peptide levels [6]: same levels of decrease in the brain
- plasma Aβ1-40 peptide levels [6]: increase in the plasma
- amyloid load [7]: significantly reduced
- course of body weight changes [8, 14]: stopped by 14 days and reversed
- gross behavioral deficits [8, 14]: no gross behavioral deficits
- histological abnormalities in the tissues examined [8, 14]: no histological abnormalities
- body weight over the 14 days ([8]; 400 mg/kg in 25% PEG 400 for 14 days, 25% PEG animals showed a similar profile): slight decrease in body weight
- gross behavioral deficits upon visual inspection (daily) [8, 15]: no gross behavioral deficits
- histological analysis of tissues (brain, liver, kidney, heart, intestine, lungs) [8, 15]: did not show any abnormal structures
- inhibition [9]: ~90%
- brain Aβ1-42 peptide levels ([10]; compared to control animals given 25% PEG only): decreased
- plasma Aβ1-42 peptide levels ([10]; compared to control levels): increased
- SPI-001 levels in brain [11]: increased significantly
- SPI-001 levels in plasma [11]: increased significantly
- time SPI-001 levels were maintained in brain [11]: approximately 24 hours
- time SPI-001 levels were maintained in plasma [11]: approximately 24 hours
- effect on MAPKAPK2 pathways [12]: activating
- inhibition of Na+ channels [13]: ~90%
